{"source": "PubChem BioAssay AID248", "about": "(DTP/NCI, 2004)", "system": "L1210 leukemia ip in BDF1 mice, survival T/C", "experiment": "NCI In Vivo Anticancer Drug Screen. Data for tumor model L1210 Leukemia (intraperitoneal) in B6D2F1 (BDF1) mice", "conditions": "endpoint: mean survival time, higher = longer survival", "method_in_brief": "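Ratio derived from survival: compound-dosed mice over vehicle-dosed mice, all bearing a transplantable tumor.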", "key": {"[1]": {"conditions": "dose: 100.0 mg/kg/injection, schedule: Q01DX009 (ip), vehicle: saline with Tween-80"}, "[2]": {"conditions": "dose: 100.0 mg/kg/injection, schedule: Q04DX003 (ip), vehicle: saline with Tween-80"}, "[3]": {"conditions": "dose: 200.0 mg/kg/injection, schedule: Q01DX009 (ip), vehicle: saline with Tween-80"}, "[4]": {"conditions": "dose: 200.0 mg/kg/injection, schedule: Q04DX003 (ip), vehicle: saline with Tween-80"}, "[5]": {"conditions": "dose: 25.0 mg/kg/injection, schedule: Q01DX009 (ip), vehicle: saline with Tween-80"}, "[6]": {"conditions": "dose: 50.0 mg/kg/injection, schedule: Q01DX009 (ip), vehicle: saline with Tween-80"}}, "note": "Values joined by “and” are separate entries in the source; they are usually repeats but may differ in a detail not shown here. Equal values may be shown once. Inconclusive results and toxic doses are left out."}
{"smiles": "CC1(C)N=C(N)N=C(N)N1c1cccc(OCCOc2cccc(NC(=O)CBr)c2)c1", "values": [{"measurement": "T/C", "setting": "dose: 5.0 mg/kg/injection, schedule: Q01DX001 (ip), vehicle: saline", "result": "98 % of control"}, {"measurement": "T/C", "setting": "dose: 10.0 mg/kg/injection, schedule: Q01DX001 (ip), vehicle: saline", "result": "102 % of control"}, {"measurement": "T/C", "setting": "dose: 10.0 mg/kg/injection, schedule: Q01DX009 (ip), vehicle: other", "result": "105 % of control"}, {"measurement": "T/C", "setting": "dose: 20.0 mg/kg/injection, schedule: Q01DX001 (ip), vehicle: saline", "result": "93 % of control"}, {"measurement": "T/C", "setting": "dose: 20.0 mg/kg/injection, schedule: Q01DX009 (ip), vehicle: other", "result": "98 % of control"}, {"measurement": "T/C", "setting": "dose: 40.0 mg/kg/injection, schedule: Q01DX001 (ip), vehicle: saline", "result": "96 % of control"}]}
{"smiles": "COC(=O)c1cncn1C(C)c1cccc2ccccc12", "note": "(stereo not drawn)", "values": [{"measurement": "T/C", "setting": "dose: 25.0 mg/kg/injection, schedule: Q04DX003 (ip), vehicle: Klucel (hydroxypropylcellulose) (HPC)", "result": "96 % of control"}, {"measurement": "T/C", "setting": "dose: 50.0 mg/kg/injection, schedule: Q04DX003 (ip), vehicle: Klucel (hydroxypropylcellulose) (HPC)", "result": "102 % of control"}, {"measurement": "T/C", "setting": "dose: 100.0 mg/kg/injection, schedule: Q04DX003 (ip), vehicle: Klucel (hydroxypropylcellulose) (HPC)", "result": "101 % of control and 103 % of control"}]}
{"smiles": "CCOC(=O)c1ccc(NC(=O)Oc2ccccc2C(C)C)cc1", "values": [{"measurement": "T/C", "setting": "[1]", "result": "97 % of control and 107 % of control"}, {"measurement": "T/C", "setting": "dose: 100.0 mg/kg/injection, schedule: Q04DX002 (ip), vehicle: saline with Tween-80", "result": "101 % of control"}, {"measurement": "T/C", "setting": "[2]", "result": "97 % of control"}, {"measurement": "T/C", "setting": "[3]", "result": "93 % of control and 97 % of control"}, {"measurement": "T/C", "setting": "dose: 200.0 mg/kg/injection, schedule: Q04DX002 (ip), vehicle: saline with Tween-80", "result": "92 % of control"}, {"measurement": "T/C", "setting": "[4]", "result": "93 % of control"}, {"measurement": "T/C", "setting": "dose: 400.0 mg/kg/injection, schedule: Q01DX009 (ip), vehicle: saline with Tween-80", "result": "89 % of control"}, {"measurement": "T/C", "setting": "dose: 400.0 mg/kg/injection, schedule: Q04DX002 (ip), vehicle: saline with Tween-80", "result": "92 % of control"}, {"measurement": "T/C", "setting": "dose: 400.0 mg/kg/injection, schedule: Q04DX003 (ip), vehicle: saline with Tween-80", "result": "102 % of control"}]}
{"smiles": "CCOC(=O)NP(=O)(NC(=O)OCC)NC(=O)OCC", "values": [{"measurement": "T/C", "setting": "dose: 50.0 mg/kg/injection, schedule: Q01DX001 (ip), vehicle: saline", "result": "106 % of control"}, {"measurement": "T/C", "setting": "dose: 100.0 mg/kg/injection, schedule: Q01DX001 (ip), vehicle: saline", "result": "104 % of control"}, {"measurement": "T/C", "setting": "dose: 200.0 mg/kg/injection, schedule: Q01DX001 (ip), vehicle: saline", "result": "93 % of control"}, {"measurement": "T/C", "setting": "dose: 400.0 mg/kg/injection, schedule: Q01DX001 (ip), vehicle: saline", "result": "106 % of control"}]}
{"smiles": "CCCCn1nnc2c(NN)nc(N)nc21", "values": [{"measurement": "T/C", "setting": "[5]", "result": "102 % of control"}, {"measurement": "T/C", "setting": "dose: 25.0 mg/kg/injection, schedule: Q04DX003 (ip), vehicle: saline with Tween-80", "result": "100 % of control"}, {"measurement": "T/C", "setting": "[6]", "result": "101 % of control"}, {"measurement": "T/C", "setting": "dose: 50.0 mg/kg/injection, schedule: Q04DX003 (ip), vehicle: saline with Tween-80", "result": "94 % of control"}, {"measurement": "T/C", "setting": "[2]", "result": "100 % of control"}]}
{"smiles": "O=C(N/N=C(\\C=N\\NC(=O)c1ccccc1)CC(O)CO)c1ccccc1", "note": "(stereo not drawn)", "values": [{"measurement": "T/C", "setting": "dose: 25.0 mg/kg/injection, schedule: Q01DX009 (ip), vehicle: Klucel (hydroxypropylcellulose) (HPC)", "result": "93 % of control"}, {"measurement": "T/C", "setting": "dose: 50.0 mg/kg/injection, schedule: Q01DX009 (ip), vehicle: Klucel (hydroxypropylcellulose) (HPC)", "result": "91 % of control"}, {"measurement": "T/C", "setting": "dose: 100.0 mg/kg/injection, schedule: Q01DX009 (ip), vehicle: Klucel (hydroxypropylcellulose) (HPC)", "result": "91 % of control"}, {"measurement": "T/C", "setting": "[2]", "result": "94 % of control"}, {"measurement": "T/C", "setting": "[4]", "result": "93 % of control"}]}
{"smiles": "Fc1ccc(C=C2c3ccccc3-c3ccccc32)cc1", "values": [{"measurement": "T/C", "setting": "dose: 25.0 mg/kg/injection, schedule: Q04DX002 (ip), vehicle: gum acacia", "result": "109 % of control"}, {"measurement": "T/C", "setting": "dose: 50.0 mg/kg/injection, schedule: Q04DX002 (ip), vehicle: gum acacia", "result": "92 % of control"}, {"measurement": "T/C", "setting": "dose: 100.0 mg/kg/injection, schedule: Q04DX002 (ip), vehicle: gum acacia", "result": "92 % of control"}]}
{"smiles": "COc1cc(/C=C2\\SC(=O)NC2=O)ccc1O", "values": [{"measurement": "T/C", "setting": "dose: 12.5 mg/kg/injection, schedule: Q01DX009 (ip), vehicle: saline with Tween-80", "result": "106 % of control"}, {"measurement": "T/C", "setting": "[5]", "result": "101 % of control"}, {"measurement": "T/C", "setting": "dose: 150.0 mg/kg/injection, schedule: Q01DX009 (ip), vehicle: saline with Tween-80", "result": "101 % of control"}]}
{"smiles": "CCn1c2ccccc2c2cc(NC(=O)N(CCCl)N=O)ccc21", "values": [{"measurement": "T/C", "setting": "dose: 177.0 mg/kg/injection, schedule: Q01DX009 (ip), vehicle: carboxymethylcellulose (CMC)", "result": "121 % of control"}, {"measurement": "T/C", "setting": "dose: 266.0 mg/kg/injection, schedule: Q01DX009 (ip), vehicle: carboxymethylcellulose (CMC)", "result": "188 % of control"}]}
{"smiles": "CCOC(=O)c1cc(Br)cc(Br)c1N=NN(C)C", "values": [{"measurement": "T/C", "setting": "[6]", "result": "105 % of control"}, {"measurement": "T/C", "setting": "[1]", "result": "113 % of control"}, {"measurement": "T/C", "setting": "[3]", "result": "105 % of control"}]}
{"smiles": "CC(Cl)CNC(=O)N(CC(C)Cl)N=O", "note": "(stereo not drawn)", "values": [{"measurement": "T/C", "setting": "dose: 8.0 mg/kg/injection, schedule: Q01DX001 (ip), vehicle: carboxymethylcellulose (CMC)", "result": "108 % of control"}, {"measurement": "T/C", "setting": "dose: 16.0 mg/kg/injection, schedule: Q01DX001 (ip), vehicle: carboxymethylcellulose (CMC)", "result": "101 % of control"}, {"measurement": "T/C", "setting": "dose: 31.0 mg/kg/injection, schedule: Q01DX001 (ip), vehicle: carboxymethylcellulose (CMC)", "result": "97 % of control"}, {"measurement": "T/C", "setting": "dose: 62.0 mg/kg/injection, schedule: Q01DX001 (ip), vehicle: carboxymethylcellulose (CMC)", "result": "100 % of control"}, {"measurement": "T/C", "setting": "dose: 125.0 mg/kg/injection, schedule: Q01DX001 (ip), vehicle: carboxymethylcellulose (CMC)", "result": "97 % of control"}, {"measurement": "T/C", "setting": "dose: 250.0 mg/kg/injection, schedule: Q01DX001 (ip), vehicle: carboxymethylcellulose (CMC)", "result": "101 % of control"}, {"measurement": "T/C", "setting": "dose: 375.0 mg/kg/injection, schedule: Q01DX001 (ip), vehicle: carboxymethylcellulose (CMC)", "result": "103 % of control"}, {"measurement": "T/C", "setting": "dose: 500.0 mg/kg/injection, schedule: Q01DX001 (ip), vehicle: carboxymethylcellulose (CMC)", "result": "122 % of control"}, {"measurement": "T/C", "setting": "dose: 750.0 mg/kg/injection, schedule: Q01DX001 (ip), vehicle: carboxymethylcellulose (CMC)", "result": "197 % of control"}, {"measurement": "T/C", "setting": "dose: 1000.0 mg/kg/injection, schedule: Q01DX001 (ip), vehicle: carboxymethylcellulose (CMC)", "result": "240 % of control"}]}
